Earlier results, collected in patent publication US20100143341A1, “THIENOPYRIMIDINES FOR PHARMACEUTICAL COMPOSITIONS” (DEVELOGEN AKTIENGESELLSCHAFT, priority 2005, published 2010).

Tests used:
human Mnk2 protein = human Mnk2 protein (Homo sapiens, UniProt Q9HBH9); conditions: described in WO 02/103361
phosphorylated eIF4E = conditions: cell culture cells transfected with Mnk2 (Mnk2a or Mnk2b) or Mnk1

Chain of human Mnk2 protein (Q9HBH9 whole entry): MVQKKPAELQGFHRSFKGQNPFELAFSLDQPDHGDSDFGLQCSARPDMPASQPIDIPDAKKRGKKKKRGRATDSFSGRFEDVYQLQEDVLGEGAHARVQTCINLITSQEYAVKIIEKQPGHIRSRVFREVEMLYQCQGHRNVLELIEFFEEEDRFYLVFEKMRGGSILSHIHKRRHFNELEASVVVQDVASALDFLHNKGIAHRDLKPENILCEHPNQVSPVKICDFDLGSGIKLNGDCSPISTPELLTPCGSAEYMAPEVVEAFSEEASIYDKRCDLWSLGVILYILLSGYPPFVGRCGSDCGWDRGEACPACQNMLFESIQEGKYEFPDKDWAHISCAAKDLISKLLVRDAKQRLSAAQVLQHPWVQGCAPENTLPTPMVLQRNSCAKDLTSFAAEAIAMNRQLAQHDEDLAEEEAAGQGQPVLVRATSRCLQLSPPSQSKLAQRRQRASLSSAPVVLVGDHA

**Q.** Which “binds the human Mnk2 protein” value (human Mnk2 protein) does the source give for COC(=O)c1ccc(O)cc1 [4-hydroxybenzoic acid methyl ester] here?
**A.** Its value is “binds”.

**Q.** With Nc1ncnc2n[nH]c(Nc3ccc(F)cc3)c12 [CGP57380] as the compound, how does the “reduction of phosphorylated eIF4E” value (phosphorylated eIF4E) read?
**A.** Its value is “strong reduction”.
